Nine compounds from ChEMBL document CHEMBL1150451, “Synthetic studies on the furan ring of wortmannin” (Bioorg Med Chem Lett, 1995) can be followed below.

The nature of this test: Inhibition of Phosphatidylinositol 3-kinase.

By IC50 is commonly meant the concentration needed to halve the response being measured. Take `C/N=C/C1=C(O)O[C@H](COC)[C@@]2(C)C1=C(O)C(=O)C1=C2[C@H](OC(C)=O)C[C@]2(C)C(=O)CC[C@@H]12`: the IC50 is above 500 nM.

Compound `COC[C@H]1OC(O)=C(C=N)C2=C(O)C(=O)C3=C([C@H](OC(C)=O)C[C@]4(C)C(=O)CC[C@@H]34)[C@]21C` came in with an IC50 above 500 nM.

`COC[C@H]1OC(=O)C(=C(C)C)C2=C(O)C(=O)C3=C([C@H](OC(C)=O)C[C@]4(C)C(=O)CC[C@@H]34)[C@]21C` came in with an IC50 above 500 nM. On to `CC/N=C/C1=C(O)O[C@H](COC)[C@@]2(C)C1=C(O)C(=O)C1=C2[C@H](OC(C)=O)C[C@]2(C)C(=O)CC[C@@H]12`, for which the IC50 was above 500 nM. To `CCC/N=C\C1=C(O)O[C@H](COC)[C@@]2(C)C1=C(O)C(=O)C1=C2[C@H](OC(C)=O)C[C@]2(C)C(=O)CC[C@@H]12` belongs above 500 nM; to `COC[C@H]1OC(=O)C2=CCOC3=C2[C@@]1(C)C1=C(C3=O)[C@@H]2CCC(=O)[C@@]2(C)C[C@H]1OC(C)=O`, 271 nM. `CCN(/C=C1/C(=O)O[C@H](COC)[C@@]2(C)C1=C(O)C(=O)C1=C2[C@H](OC(C)=O)C[C@]2(C)C(=O)CC[C@@H]12)CC` registered an IC50 of 80 nM.

`COC[C@H]1OC(=O)C23CC2COC2=C3[C@@]1(C)C1=C(C2=O)[C@@H]2CCC(=O)[C@@]2(C)C[C@H]1OC(C)=O` (some centres undefined) yielded an IC50 above 500 nM. `COC[C@H]1OC(=O)c2coc3c2[C@@]1(C)C1=C(C3=O)[C@@H]2CCC(=O)[C@@]2(C)C[C@H]1OC(C)=O` [WORTMANNIN]: the IC50 turned out to be 4.2 nM.
